# Measurements taken from patent publication US8349310B2, “Attractant compositions and method for attracting biting insects” (Bedoukian Research, Inc., priority 2007, dated 2013).
# Key:
# mosquitoes [1] = assay: Field trap catch, Hock Model 1012 traps: CO2 plus 1,5Z-octadien-3-ol vs CO2 alone (Example 1); type: in vivo
# Excerpt: (§1) Although, as stated above, this invention may be employed with any suitable trap or system, the invention has been tested and employed in a trap or system as described hereinafter. Mosquito traps Model 1012 manufactured by John W. Hock Company in Gainesville, Fla. were used in these tests. The traps use a stream of CO2 directed in the vicinity of a collection bag, with a fan used to blow mosquitoes into the bag. The light supplied to the trap was turned off. The traps were spaced 65-70 feet apart at the edge of a wetland in Danbury, Conn., at least 25 feet from any buildings. The 1,5-octadien-3-ol component was incorporated into a wax lure of the type manufactured by BioSensory, Inc. and placed near a stream of CO2 which was being released at a rate of approximately 150 ml/minute. The traps were operated from approximately 4:00 PM until 9:00 AM the next day. Daytime temperatures were approximately 70-75° F. during the trials.
# To establish a baseline control the Hock traps with just CO2, and no added 1,5-octadien-3-ol component, were operated in the two areas on three days. The trap in area 1 (Trap A) caught 32 of the mosquitoes caught, and the trap in area 2 (Trap B) caught 23 of the mosquitoes caught. […]
# mosquitoes [2] = assay: Field trap catch, Hock traps: r-1-octen-3-ol with or without r-1,5Z-octadien-3-ol (Example 2); type: in vivo; conditions: for mosquitoes caught: Traps A and B, twelve day test period, attractant in 2 ml diethyl phthalate, 0.04 g r-1,5Z-octadien-3-ol tested together with 0.2 g r-1-octen-3-ol, r-1-octen-3-ol alone at 2 g
# Excerpt: as §1
# This test was conducted over a twelve-day period. The test was conducted to determine if 1,5-octadien-3-ol increases the trap catch of mosquitoes when added to a trap already containing the known attractant r-1-octen-3-ol. Traps A in area 1 and B in area 2, as described in Example 1, were employed. Both traps A and B were tested with (1) 0.2 g 100% r-1-octen-3-ol+0.04 g r-1,5Z-octadien-3-ol. in 2 ml diethyl phthalate, and (2) with 2 g 100% r-1-octen-3-ol in 2 ml diethyl phthalate (i.e., with no 1,5Z-octadien-3-ol present). Over the twelve day test period the traps with the 1,5z-octadien-3-ol present caught 239 mosquitoes and the traps without the 1,5Z-octadien-3-ol present caught 221 mosquitoes. Thus, the presence of the 1,5Z-octadien-3-ol increased the catch of mosquitoes by 8%.
# Culex quinquefasciatus = conditions: electrophysiology test, reported in a published article; cited from earlier work
compound,measurement,setting,value
"C=CC(O)C/C=C\CC (stereo not drawn) [1,5Z-octadien-3-ol]",mosquitoes caught,"mosquitoes [1]; Trap A (area 1), compound in trap plus 150 ml/minute CO2, four day test period, Trap B with CO2 only caught 35",84 mosquitoes
same,catch ratio Trap A to Trap B,"mosquitoes [1]; Trap A with compound plus CO2 vs Trap B with CO2 only, four days, baseline catch ratio 1.4 with CO2 only in both traps",2.4
"C=C[C@H](O)C/C=C\CC [r-1,5Z-octadien-3-ol]",mosquitoes caught,mosquitoes [2],239 mosquitoes
same,increase of the catch of mosquitoes,"mosquitoes [2]; r-1-octen-3-ol plus r-1,5Z-octadien-3-ol vs r-1-octen-3-ol alone, twelve days",8%
"C=C[C@H](O)CCCCC [r-1-octen-3-ol, reference compound]",mosquitoes caught,mosquitoes [2],221 mosquitoes
"C=CC(O)CC=CCC (stereo not drawn) [1,5-octadien-3-ol]",ability to attract mosquitoes,Culex quinquefasciatus,confirmed
